US20090325948A1, “INHIBITORS OF UNDECAPRENYL PYROPHOSPHATE SYNTHASE” (priority 2006, published 2009)

What follows are molecules tested against T1, Streptococcus pneumonia UPPS (Streptococcus pneumoniae serotype 4, UniProt Q97SR4) (assay: UPPS binding/inhibition assay (inorganic phosphate quantified with Biomol Green)). Details: 20 min preincubation; FPP 3 μM, IPP 16 μM.
T1 construct: His-tag (N); made in house; this is inferred
T1 sequence (Q97SR4 1-252): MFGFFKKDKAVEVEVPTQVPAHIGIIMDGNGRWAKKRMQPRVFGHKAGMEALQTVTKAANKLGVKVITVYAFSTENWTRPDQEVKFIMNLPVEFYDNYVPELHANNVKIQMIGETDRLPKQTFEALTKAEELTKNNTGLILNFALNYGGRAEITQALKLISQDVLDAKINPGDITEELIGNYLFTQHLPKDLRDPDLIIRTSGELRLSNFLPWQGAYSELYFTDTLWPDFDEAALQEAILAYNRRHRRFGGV
Format: biochemical
Method: The ability of several of the compounds described herein to bind to UPPS was also tested as follows.
Streptococcus pneumonia UPPS was cloned into pET-15b, expressed and purified as an N-terminal His-tag fusion using affinity chromatography. The working stock of UPPS was prepared by mixing the purified enzyme with liposome made from E. coli total lipids extract (Avanti Polar Lipis, Inc., Alabaster, Ala.). The substrates FPP and IPP and inorganic pyrophosphatase were purchased from Sigma. Biomol Green reagent was from Biomol International (Plymouth Meeting, Pa.). All other chemicals were from Sigma at the highest grade.
For testing a compound, UPPS was first incubated with the compound at desired concentrations for 20 minutes in the UPPS reaction buffer that contained 100 mM Tris-HCl, pH 7.3, 50 mM KCl, 1 mM MgCl2, 0.01% Triton X-100, and 20 μg/mL BSA. The reaction was then initiated by the addition of a mixture of FPP, IPP, and E. Coli inorganic phosphatase made in the same UPPS reaction buffer. The final concentrations for FPP and IPP were 3 μM and 16 μM, respectively. The inorganic phosphate generated in the reactions was then quantified with Biomol Green reagent, which was then used to determine the rate of the reaction and the inhibitory activity of the compound.
For example, the results of the binding assay for several compounds are shown the table below: […]

SMILES | IC50
O=C(Nc1ccc(Oc2ccccc2)cc1)C1=C(O)C2CNCCC2NC1=O (stereo not shown) [compound 28] | 0.01 to 10 µM
O=C(Nc1ccc(N2CCCC2)cc1)C1=C(O)C2CCNCC2NC1=O (stereo not shown) [compound 61] | 0.01 to 10 µM
O=C(Nc1ccc(N2CCCCC2)cc1)C1=C(O)[C@H]2CNCC[C@H]2NC1=O [compound 47] | 0.01 to 10 µM
Cn1c(=O)c(C(=O)Nc2ccc(OC(F)(F)F)cc2)c(O)c2ccccc21 [compound 175] | 0.01 to 10 µM
O=C(Nc1ccc(Oc2ccccc2)cc1)c1c(O)c2cscc2[nH]c1=O [compound 2] | 0.01 to 10 µM
O=C(Nc1ccc(-c2ccccc2)cc1)c1c(O)c2cc(Br)ccc2[nH]c1=O [compound 159] | 0.01 to 10 µM
O=C(NCCN1CCOCC1)c1c(O)c2ccccc2[nH]c1=O [compound 154] | 0.01 to 10 µM
CCCCCCOc1ccc(NC(=O)c2c(O)c3cc(-c4ccccc4)sc3[nH]c2=O)cc1 [compound 110] | 0.01 to 10 µM
O=C(NCc1ccccc1)c1c(O)c2c([nH]c1=O)CCCC2 [compound 84] | 0.01 to 10 µM
O=C(Nc1ccc(N2CCCCC2)cc1)C1=C(O)[C@H]2CNCC[C@@H]2NC1=O [compound 46] | 0.01 to 10 µM
COc1ccc(-c2nc(NC(=O)c3c(O)c4cscc4[nH]c3=O)nn2-c2ccc(OC)cc2)cc1 [compound 10] | 0.01 to 10 µM
CC(C)(C)OC(=O)N1CCC2NC(=O)C(C(=O)Nc3ccc(C4CCCCC4)cc3)=C(O)C2C1 (stereo not shown) [compound 29] | 0.01 to 10 µM
COC(=O)N1CCc2[nH]c(=O)c(C(=O)Nc3ccc(N4CCCCC4)cc3)c(O)c2C1 [compound 129] | 0.01 to 10 µM
CC(C)(C)OC(=O)N1CCC2NC(=O)C(C(=O)Nc3ccc(Oc4ccccc4)cc3)=C(O)C2C1 (stereo not shown) [compound 34] | 0.01 to 10 µM
CC(C)(C)C1CCC(NC(=O)c2c(O)c3cscc3[nH]c2=O)CC1 (stereo not shown) [compound 11] | 0.01 to 10 µM
O=C(Nc1ccc(N2CCCCC2)cc1)C1=C(O)C2CNCCC2NC1=O (stereo not shown) [compound 37] | 0.01 to 10 µM
COc1ccc(-c2nc(NC(=O)c3c(O)c4ccccc4n(C)c3=O)nn2-c2ccc(OC)cc2)cc1 [compound 173] | 0.01 to 10 µM
O=C(NC1CCCCCC1)c1c(O)c2c([nH]c1=O)CCCC2 [compound 92] | 0.01 to 10 µM
O=C(Nc1ccc(C2CCCCC2)cc1)C1=C(O)[C@H]2CCC[C@H]2NC1=O [compound 45] | 0.01 to 10 µM
COc1cccc2[nH]c(=O)c(C(=O)Nc3ccc(Oc4ccccc4)cc3)c(O)c12 [compound 144] | > 50 µM
Cn1c(=O)c(C(=O)Nc2ccc(Oc3ccccc3)cc2)c(O)c2ccccc21 [compound 168] | 0.01 to 10 µM
O=C(Nc1cccc(Cl)c1Cl)c1c(O)c2c([nH]c1=O)CCCC2 [compound 100] | > 50 µM
C#CCOC(=O)N1CC[C@@H]2NC(=O)C(C(=O)Nc3ccc(N4CCCCC4)cc3)=C(O)[C@H]2C1 [compound 73] | > 50 µM
CC(C)CCNC(=O)c1c(O)c2c([nH]c1=O)CCCC2 [compound 87] | 0.01 to 10 µM
O=C(Nc1ccc(C(F)(F)F)cc1)c1c(O)c2cc(-c3ccccc3)sc2[nH]c1=O [compound 111] | 10 to 50 µM
O=C(Nc1ccc(N2CCCCC2)cc1)c1c(O)c2cc(N3CCNCC3)ccc2[nH]c1=O [compound 179] | 0.01 to 10 µM
O=C(Nc1ccc(C(F)(F)F)nc1)c1c(O)c2ccccc2[nH]c1=O [compound 157] | 0.01 to 10 µM
O=C(Nc1ccc(N2CCN(CCO)CC2)cc1)C1=C(O)C2CNCCC2NC1=O (stereo not shown) [compound 64] | > 50 µM

SMILES | IC50
CCCN(CC)c1ccc(NC(=O)c2c(O)c3ccc(N4CCN(C)CC4)cc3[nH]c2=O)cc1 [compound 180] | 0.01 to 10 µM
O=C(Nc1ccc(N2CCCCC2)cc1)c1c(O)c2c([nH]c1=O)CCNC2 [compound 121] | 0.01 to 10 µM
CC(=O)N1CCc2[nH]c(=O)c(C(=O)Nc3ccc(N4CCCCC4)cc3)c(O)c2C1 [compound 126] | 0.01 to 10 µM
CCN1CC[C@@H]2NC(=O)C(C(=O)Nc3ccc(N4CCCCC4)cc3)=C(O)[C@H]2C1 [compound 69] | 0.01 to 10 µM
CCN1C[C@@H]2NC(=O)C(C(=O)Nc3ccc(C4CCCCC4)cc3)=C(O)[C@H]2C1 [compound 20] | 0.01 to 10 µM
O=C(Nc1ccc(N2CCCCC2)cc1)C1=C(O)C2CCNCC2NC1=O (stereo not shown) [compound 49] | 0.01 to 10 µM
CCCOC(=O)c1ccc(NC(=O)c2c(O)c3c([nH]c2=O)CCCC3)cc1 [compound 124] | 0.01 to 10 µM
O=C(Nc1ccc(-c2ccccc2)cc1)C1=C(O)[C@H]2CNC[C@@H]2NC1=O [compound 17] | 0.01 to 10 µM
O=C(Nc1ccc(C2CCCCC2)cc1)c1c(O)c2cscc2[nH]c1=O [compound 4] | 0.01 to 10 µM
CNC(=O)c1ccccc1NC(=O)c1c(O)c2c([nH]c1=O)CCCC2 [compound 98] | 0.01 to 10 µM
O=C(Nc1ccc(N2CCCCC2)cc1)C1=C(O)C2CCNCC2NC1=O (stereo not shown) [compound 32] | 0.01 to 10 µM
O=C(Nc1cccc(Br)c1)c1c(O)c2c([nH]c1=O)CCCC2 [compound 93] | > 50 µM
O=C(Nc1ccc(-c2ccccc2)cc1)C1=C(O)C2CNCCC2NC1=O (stereo not shown) [compound 26] | 0.01 to 10 µM
O=C(Nc1ccc(C(F)(F)F)cc1)C1=C(O)[C@H]2CCC[C@H]2NC1=O [compound 40] | 0.01 to 10 µM
O=C(Nc1ccc(N2CCCCC2)cc1)c1c(O)c2c([nH]c1=O)CNCC2 [compound 120] | 0.01 to 10 µM
COCCOC(=O)N1CC[C@@H]2NC(=O)C(C(=O)Nc3ccc(N4CCCCC4)cc3)=C(O)[C@H]2C1 [compound 72] | 0.01 to 10 µM
O=C(Nc1ccccc1Oc1ccccc1)c1c(O)c2ccccc2[nH]c1=O [compound 162] | 0.01 to 10 µM
CC(C)(C)C(=O)N1CCc2[nH]c(=O)c(C(=O)Nc3ccc(N4CCCCC4)cc3)c(O)c2C1 [compound 128] | 0.01 to 10 µM
O=C(Nc1ccc(C2CCCCC2)cc1)c1c(O)c2cc(-c3ccccc3)sc2[nH]c1=O [compound 107] | 0.01 to 10 µM
CCCN(CC)c1ccc(NC(=O)c2c(O)c3ccc(N4CCNCC4)cc3[nH]c2=O)cc1 [compound 178] | 0.01 to 10 µM
CC(C)(C)OC(=O)N1CCC2C(O)=C(C(=O)Nc3ccc(N4CCCC4)cc3)C(=O)NC2C1 (stereo not shown) [compound 54] | 0.01 to 10 µM
O=C(NC1CCCCC1)c1c(O)c2ccccc2[nH]c1=O [compound 137] | 0.01 to 10 µM
O=C(Nc1nc2ccc(Br)cc2s1)c1c(O)c2c([nH]c1=O)CCCC2 [compound 104] | 0.01 to 10 µM
O=C(NNC(=O)c1c(O)c2ccccc2[nH]c1=O)c1ccccc1Cl [compound 131] | 0.01 to 10 µM
CC(C)(C)OC(=O)N1CCC2NC(=O)C(C(=O)Nc3ccc(N4CCN(CCO)CC4)cc3)=C(O)C2C1 (stereo not shown) [compound 59] | 0.01 to 10 µM
O=C(Nc1ccc(C2CCCCC2)cc1)C1=C(O)[C@H]2CNCC[C@@H]2NC1=O [compound 51] | 0.01 to 10 µM
O=C(Nc1ccc(Oc2ccccc2)cc1)c1c(O)c2ccccc2[nH]c1=O [compound 142] | 0.01 to 10 µM
